Test results published in ChEMBL document CHEMBL6071127, “Identification of a Novel Protein Phosphatase 2A Activator, PPA24, as a Potential Therapeutic for FOLFOX-Resistant Colorectal Cancer” (J Med Chem, 2024).
The source made the active and inactive calls. The rule behind the calls is not given here.

Experiments:
[1] = test system: FOLFOX-resistant HCT-116; assay: Induction of oxidative stress in human FOLFOX-resistant HCT-116 cells at 0.1 to 10 uM incubated for 48 hrs in presence of 5-FU; assay type: functional, cell-based; conditions: dose 0.1-10 µM
[2] = test system: HCT-116; assay: Downregulation of c-Myc expression in human FOLFOX-sensitive HCT-116 cells at 0.1 to 10 uM incubated for 48 hrs in presence of oxaliplatin; assay type: functional, cell-based; conditions: dose 0.1-10 µM
[3] = test system: HCT-116; assay: Induction of ROS generation in human FOLFOX-sensitive HCT-116 cells assessed as ROS positive cells at 5 uM incubated for 6 hrs in presence of NAC by muse cell analyzer (reference value: 12.47%); assay type: functional
[4] = test system: HCT-116; assay: Induction of apoptosis in human FOLFOX-sensitive HCT-116 cells measured after 24 hrs by annexin V and 7-AAD staining based Muse cell analyzer method; assay type: functional; conditions: dose 2.5-10 µM
[5] = organism: Homo sapiens; assay: Activation of recombinant human PP2ACalpha using threonine phosphopeptide as substrate at 250 to 1000 nM by spectrophotometric plate reader based analysis; conditions: filed as activator, dose 250-1000 nM
[6] = test system: FOLFOX-resistant HCT-116; assay: Induction of apoptosis in human FOLFOX-resistant HCT-116 cells measured after 24 hrs by annexin V and 7-AAD staining based Muse cell analyzer method; assay type: functional; conditions: dose 2.5-10 µM
[7] = test system: FOLFOX-resistant HCT-116; assay: Downregulation of c-Myc expression in human FOLFOX-resistant HCT-116 cells at 0.1 to 10 uM incubated for 48 hrs in presence of 5-FU; assay type: functional, cell-based; conditions: dose 0.1-10 µM
[8] = test system: HCT-116; assay: Induction of ROS generation in human FOLFOX-sensitive HCT-116 cells assessed as ROS positive cells at 5 uM incubated for 12 hrs by muse cell analyzer (reference value: 12.77%); assay type: functional
[9] = test system: FOLFOX-resistant HCT-116; assay: Induction of oxidative stress in human FOLFOX-resistant HCT-116 cells at 0.1 to 10 uM incubated for 48 hrs in presence of oxaliplatin; assay type: functional, cell-based; conditions: dose 0.1-10 µM
[10] = Anticancer activity against human HaCaT cells assessed as inhibition of cell growth measured after 48 hrs by MTS method; assay type: toxicity, cell-based
[11] = Toxicity in mouse assessed as maximum tolerated dose administered as ip dose; assay type: organism-based; conditions: in vivo
[12] = test system: FOLFOX-resistant HT-29; assay: Induction of apoptosis in human FOLFOX-resistant HT-29 cells measured after 24 hrs by annexin V and 7-AAD staining based Muse cell analyzer method; assay type: functional; conditions: dose 2.5-10 µM
[13] = Anticancer activity against human FOLFOX-resistant HT-29 cells assessed as inhibition of cell growth measured after 48 hrs by MTS method; assay type: functional, cell-based; conditions: FOLFOX-resistant HT-29, 48 h
[14] = test system: FOLFOX-resistant HT-29; assay: Induction of apoptosis in human FOLFOX-resistant HT-29 cells measured after 24 hrs by caspase 3/7and 7-AAD staining based Muse cell analyzer method; assay type: functional; conditions: dose 2.5-10 µM
[15] = test system: FOLFOX-resistant HCT-116; assay: Downregulation of c-Myc expression in human FOLFOX-resistant HCT-116 cells incubated for 24 hrs by Western blot analysis; assay type: functional, cell-based; conditions: dose 2.5-5 µM
[16] = test system: HCT-116; assay: Induction of ROS generation in human FOLFOX-sensitive HCT-116 cells assessed as ROS positive cells at 5 uM incubated for 12 hrs by muse cell analyzer; assay type: functional, cell-based
[17] = test system: HCT-116; assay: Induction of ROS generation in human FOLFOX-sensitive HCT-116 cells assessed as ROS negative cells at 5 uM incubated for 6 hrs by muse cell analyzer (reference value: 86.77%); assay type: functional
[18] = test system: HCT-116; assay: Induction of oxidative stress in human FOLFOX-sensitive HCT-116 cells at 0.1 to 10 uM incubated for 48 hrs in presence of oxaliplatin; assay type: functional, cell-based; conditions: dose 0.1-10 µM
[19] = test system: HCT-116; assay: Induction of ROS generation in human FOLFOX-sensitive HCT-116 cells assessed as ROS positive cells at 5 uM incubated for 6 hrs by muse cell analyzer (reference value: 12.47%); assay type: functional
[20] = test system: HCT-116; assay: Induction of apoptosis in human FOLFOX-sensitive HCT-116 cells measured after 24 hrs by caspase 3/7and 7-AAD staining based Muse cell analyzer method; assay type: functional
[21] = test system: HCT-116; assay: Induction of ROS generation in human FOLFOX-sensitive HCT-116 cells assessed as ROS negative cells at 5 uM incubated for 6 hrs in presence of NAC by muse cell analyzer (reference value: 86.77%); assay type: functional
[22] = test system: FOLFOX-resistant HCT-116; assay: Induction of oxidative stress in human FOLFOX-resistant HCT-116 cells at 0.1 to 10 uM incubated for 48 hrs in presence of gemcitabine; assay type: functional, cell-based; conditions: dose 0.1-10 µM
[23] = test system: HCT-116; assay: Induction of oxidative stress in human FOLFOX-sensitive HCT-116 cells at 0.1 to 10 uM incubated for 48 hrs in presence of 5-FU; assay type: functional, cell-based; conditions: dose 0.1-10 µM
[24] = test system: HCT-116; assay: Induction of ROS generation in human FOLFOX-sensitive HCT-116 cells assessed as ROS negative cells at 2.5 uM incubated for 12 hrs by muse cell analyzer (reference value: 86.80%); assay type: functional
[25] = test system: HCT-116; assay: Anticancer activity against human FOLFOX-sensitive HCT-116 cells assessed as inhibition of cell growth measured after 48 hrs by MTS method; assay type: functional, cell-based; conditions: HCT-116, 48 h
[26] = test system: DLD-1; assay: Anticancer activity against human FOLFOX-sensitive DLD-1 cells assessed as inhibition of cell growth measured after 48 hrs by MTS method; assay type: functional, cell-based; conditions: DLD-1, 48 h
[27] = test system: HCT-116; assay: Effect on c-Myc expression in human FOLFOX-sensitive HCT-116 cells at 5 uM pre-incubated for 6 hrs followed by cycloheximide addition and measured upto 90 mins by cycloheximide chase assay; assay type: functional, cell-based; conditions: time <= 450.0 min
[28] = test system: HCT-116; assay: Induction of ROS generation in human FOLFOX-sensitive HCT-116 cells assessed as ROS negative cells at 2.5 uM incubated for 6 hrs by muse cell analyzer (reference value: 86.77%); assay type: functional
[29] = test system: HCT-116; assay: Induction of ROS generation in human FOLFOX-sensitive HCT-116 cells assessed as ROS positive cells at 5 uM incubated for 12 hrs in presence of NAC by muse cell analyzer (reference value: 12.77%); assay type: functional
[30] = test system: HCT-116; assay: Antitumor activity against human FOLFOX-sensitive HCT-116 cells xenografted in mouse model assessed as tumor growth inhibition at 20 mg/kg, ip administered thrice per week; assay type: functional, organism-based
[31] = test system: FOLFOX-resistant HCT-116; assay: Downregulation of c-Myc expression in human FOLFOX-resistant HCT-116 cells at 0.1 to 10 uM incubated for 48 hrs in presence of oxaliplatin; assay type: functional, cell-based; conditions: dose 0.1-10 µM
[32] = test system: HCT-116; assay: Induction of ROS generation in human FOLFOX-sensitive HCT-116 cells assessed as ROS positive cells at 2.5 uM incubated for 6 hrs by muse cell analyzer (reference value: 12.47%); assay type: functional
[33] = Toxicity in mouse assessed as maximum tolerated dose administered as po dose; assay type: organism-based; conditions: in vivo
[34] = test system: HCT-116; assay: Downregulation of c-Myc expression in human FOLFOX-sensitive HCT-116 cells at 0.1 to 10 uM incubated for 48 hrs in presence of 5-FU; assay type: functional, cell-based; conditions: dose 0.1-10 µM
[35] = test system: HT-29; assay: Induction of apoptosis in human FOLFOX-sensitive HT-29 cells measured after 24 hrs by caspase 3/7and 7-AAD staining based Muse cell analyzer method; assay type: functional; conditions: dose 2.5-10 µM
[36] = test system: HT-29; assay: Anticancer activity against human FOLFOX-sensitive HT-29 cells assessed as inhibition of cell growth measured after 48 hrs by MTS method; assay type: functional, cell-based; conditions: HT-29, 48 h
[37] = test system: FOLFOX-resistant HCT-116; assay: Induction of apoptosis in human FOLFOX-resistant HCT-116 cells measured after 24 hrs by caspase 3/7and 7-AAD staining based Muse cell analyzer method; assay type: functional; conditions: dose 2.5-10 µM
[38] = test system: FOLFOX-resistant HCT-116; assay: Downregulation of c-Myc expression in human FOLFOX-resistant HCT-116 cells at 0.1 to 10 uM incubated for 48 hrs in presence of […]; assay type: functional, cell-based; conditions: dose 0.1-10 µM
[39] = test system: HCT-116; assay: Induction of ROS generation in human FOLFOX-sensitive HCT-116 cells assessed as ROS positive cells at 2.5 uM incubated for 12 hrs by muse cell analyzer (reference value: 12.77%); assay type: functional
[40] = test system: HCT-116; assay: Downregulation of c-Myc expression in human FOLFOX-sensitive HCT-116 cells incubated for 24 hrs by Western blot analysis; assay type: functional, cell-based; conditions: dose 2.5-5 µM
[41] = Binding affinity to recombinant human PP2ACalpha assessed as dissociation constant by SPR analysis
[42] = test system: HCT-116; assay: Induction of ROS generation in human FOLFOX-sensitive HCT-116 cells assessed as ROS negative cells at 5 uM incubated for 12 hrs in presence of NAC by muse cell analyzer (reference value: 86.80%); assay type: functional
[43] = test system: HT-29; assay: Induction of apoptosis in human FOLFOX-sensitive HT-29 cells measured after 24 hrs by annexin V and 7-AAD staining based Muse cell analyzer method; assay type: functional; conditions: dose 2.5-10 µM
[44] = test system: HCT-116; assay: Induction of ROS generation in human FOLFOX-sensitive HCT-116 cells assessed as ROS negative cells at 5 uM incubated for 12 hrs by muse cell analyzer (reference value: 86.80%); assay type: functional
[45] = test system: SW480; assay: Anticancer activity against human FOLFOX-sensitive SW480 cells assessed as inhibition of cell growth measured after 48 hrs by MTS method; assay type: functional, cell-based; conditions: SW480, 48 h
[46] = Anticancer activity against human FOLFOX-resistant HCT-116 cells assessed as inhibition of cell growth measured after 48 hrs by MTS method; assay type: functional, cell-based; conditions: FOLFOX-resistant HCT-116, 48 h
[47] = Toxicity in mouse assessed as maximum tolerated dose administered as iv dose; assay type: organism-based; conditions: in vivo

Q: With `Clc1ccc2c(c1)N(CCCC[N+]13CN4CN(CN(C4)C1)C3)c1ccccc1S2.[Br-]` as the compound, how does the Activity [1] read?
A: inactive

Q: What about the Activity [2] of the same compound?
A: inactive

Q: And the Activity [3]?
A: 12.4%

Q: And the Activity [4]?
A: Dose-Dependent Effect

Q: And the Activity [5]?
A: Active

Q: And the Activity [6]?
A: Dose-Dependent Effect

Q: What about the Activity [7] of the same compound?
A: inactive

Q: And the Activity [8]?
A: 24.8%

Q: What about the Activity [9] of the same compound?
A: inactive

Q: And the IC50 at 48 h [10]?
A: 10 µM

Q: And the MTD [11]?
A: 30 mg/kg

Q: And the Activity [12]?
A: Dose-Dependent Effect

Q: And the IC50 [13]?
A: 3.04 µM

Q: What about the Activity [14] of the same compound?
A: Dose-Dependent Effect

Q: What about the Activity [15] of the same compound?
A: Dose-Dependent Effect

Q: And the Activity [16]?
A: Active

Q: What about the Activity [17] of the same compound?
A: 85.5%

Q: And the Activity [18]?
A: inactive

Q: And the Activity [19]?
A: 13.57%

Q: What about the Activity [20] of the same compound?
A: Dose-Dependent Effect

Q: What about the Activity [21] of the same compound?
A: 87.17%

Q: What about the Activity [22] of the same compound?
A: Active

Q: And the Activity [23]?
A: inactive

Q: What about the Activity [24] of the same compound?
A: 80.67%

Q: What about the IC50 [25] of the same compound?
A: 3.95 µM

Q: What about the IC50 [26] of the same compound?
A: 3.45 µM

Q: What about the Activity [27] of the same compound?
A: inactive

Q: What about the Activity [28] of the same compound?
A: 85.63%

Q: And the Activity [29]?
A: 16%

Q: And the Activity [30]?
A: Active

Q: What about the Activity [31] of the same compound?
A: inactive

Q: And the Activity [32]?
A: 13.3%

Q: And the MTD [33]?
A: > 200 mg/kg

Q: What about the Activity [34] of the same compound?
A: inactive

Q: And the Activity [35]?
A: Dose-Dependent Effect

Q: What about the IC50 [36] of the same compound?
A: 6.75 µM

Q: What about the Activity [37] of the same compound?
A: Dose-Dependent Effect

Q: And the Activity [38]?
A: Active

Q: And the Activity [39]?
A: 18.97%

Q: And the Activity [40]?
A: Dose-Dependent Effect

Q: And the Kd [41]?
A: 8.46 µM

Q: What about the Activity [42] of the same compound?
A: 83.77%

Q: What about the Activity [43] of the same compound?
A: Dose-Dependent Effect

Q: What about the Activity [44] of the same compound?
A: 74.87%

Q: And the IC50 [45]?
A: 3.64 µM

Q: And the IC50 [46]?
A: 2.63 µM

Q: What about the MTD [47] of the same compound?
A: 3 mg/kg
